Measurements: patent publication US11147272B2, “Pyridone compounds and agricultural and horticultural fungicides comprising the same as active ingredients” (MITSUI CHEMICALS AGRO, INC., priority 2017, dated 2021)

Assays:
[1] = test system: Magnaporthe grisea; test: whole plant or invertebrate; format: in vivo; conditions: Blast on rice; control value class
[2] = test system: Alternaia brassicicola; test: Test Example C: Alternaria sooty spot on cabbage; format: in vivo; conditions: Alternaria sooty spot on cabbage; control value class
From the text: Seeds of a test plant (cabbage variety: Shikidori) were planted and cultivated until the cotyledons extended.
<Control Value> Control value=100{1−(n/3)}

[3] = test system: Puccinia recondita; test: Test Example E: Brown rust on wheat; format: in vivo; conditions: Brown rust on wheat; control value class
[4] = test system: Phytophthora infestans; test: whole plant or invertebrate; format: in vivo; conditions: Late blight on tomato; control value class
[5] = test system: Botrytis cinerea; test: Test Example B: Gray mold on tomato; conditions: Gray mold on tomato; control value class
[6] = test system: Plasmopara viticola; test: Test Example G: Downy mildew on vine; conditions: Downy mildew on vine; 250 ppm spray, 7 to 10 days after inoculation
[7] = test system: Colletotrichum orbiculare; test: Test Example H: Anthracnose on cucumber; conditions: Anthracnose on cucumber; 250 ppm spray, 6 to 10 days after inoculation
[8] = test system: Blumeria graminis f. sp. hordei; test: Test Example D: Powdery mildew on barley; conditions: Powdery mildew on barley; control value class

| Structure (SMILES) | Test A control value [1] | Test C control value [2] | Test E control value [3] | Test F control value [4] | Test B control value [5] | Test G control value [6] | Test H control value [7] | Test D control value [8] |
| --- | --- | --- | --- | --- | --- | --- | --- | --- |
| CCCCc1cc(Br)c(=O)n(CC)c1-c1ccc(F)cc1Cl [compound 207] | H (more than 50% control value) | H (more than 50% control value) | H (more than 50% control value) | L (50% or less control value) | H (more than 50% control value) | H (more than 50% control value) | H (more than 50% control value) | H (more than 50% control value) |
| CCCCc1ccc(=O)n(CC)c1-c1ccc(F)cc1Cl [compound 208] | H (more than 50% control value) | H (more than 50% control value) | H (more than 50% control value) | L (50% or less control value) | H (more than 50% control value) | L (50% or less control value) | L (50% or less control value) | H (more than 50% control value) |
| CCCCCc1cc(Cl)c(=O)n(CC)c1-c1ccc(F)cc1Cl [compound 209] | H (more than 50% control value) | H (more than 50% control value) | H (more than 50% control value) | L (50% or less control value) | H (more than 50% control value) | H (more than 50% control value) | H (more than 50% control value) | H (more than 50% control value) |
| CCCCCc1cc(Br)c(=O)n(CC)c1-c1ccc(F)cc1Cl [compound 210] | H (more than 50% control value) | H (more than 50% control value) | H (more than 50% control value) | L (50% or less control value) | H (more than 50% control value) | L (50% or less control value) | H (more than 50% control value) | H (more than 50% control value) |
| CCn1c(-c2ccc(F)cc2)c(C(O)C(C)C)cc(Cl)c1=O (stereo not shown) [compound 211] | L (50% or less control value) | H (more than 50% control value) | H (more than 50% control value) | L (50% or less control value) | H (more than 50% control value) | L (50% or less control value) | L (50% or less control value) | L (50% or less control value) |
| CCn1c(-c2ccc(F)cc2)c(C(=O)C(C)C)cc(Cl)c1=O [compound 212] | L (50% or less control value) | H (more than 50% control value) | H (more than 50% control value) | L (50% or less control value) | H (more than 50% control value) | L (50% or less control value) | L (50% or less control value) | H (more than 50% control value) |
| CCn1c(-c2ccc(F)cc2)c(C(C)(O)C(C)C)cc(Cl)c1=O (stereo not shown) [compound 213] | H (more than 50% control value) | H (more than 50% control value) | H (more than 50% control value) | L (50% or less control value) | H (more than 50% control value) | H (more than 50% control value) | H (more than 50% control value) | H (more than 50% control value) |
| CCn1c(-c2ccc(F)cc2)c(C(C)(OC)C(C)C)cc(Cl)c1=O (stereo not shown) [compound 214] | H (more than 50% control value) | H (more than 50% control value) | H (more than 50% control value) | L (50% or less control value) | H (more than 50% control value) | L (50% or less control value) | L (50% or less control value) | H (more than 50% control value) |
| CCOC(C)(c1cc(Cl)c(=O)n(CC)c1-c1ccc(F)cc1)C(C)C (stereo not shown) [compound 215] | L (50% or less control value) | L (50% or less control value) | L (50% or less control value) | L (50% or less control value) | L (50% or less control value) | L (50% or less control value) | L (50% or less control value) | H (more than 50% control value) |
| CCCOC(C)(c1cc(Cl)c(=O)n(CC)c1-c1ccc(F)cc1)C(C)C (stereo not shown) [compound 216] | L (50% or less control value) | L (50% or less control value) | L (50% or less control value) | L (50% or less control value) | L (50% or less control value) | L (50% or less control value) | L (50% or less control value) | H (more than 50% control value) |
| CCn1c(-c2ccc(F)cc2)c(C(C)(F)C(C)C)cc(Cl)c1=O (stereo not shown) [compound 217] | H (more than 50% control value) | H (more than 50% control value) | H (more than 50% control value) | L (50% or less control value) | H (more than 50% control value) | L (50% or less control value) | H (more than 50% control value) | H (more than 50% control value) |
| CCOc1cc(F)c(-c2c(C(=O)C(C)C)cc(Cl)c(=O)n2CC)c(F)c1 [compound 218] | H (more than 50% control value) | H (more than 50% control value) | H (more than 50% control value) | L (50% or less control value) | H (more than 50% control value) | H (more than 50% control value) | H (more than 50% control value) | H (more than 50% control value) |
| CCn1c(-c2ccc(F)cc2Cl)c(C2CCCC2)ccc1=O [compound 219] | H (more than 50% control value) | H (more than 50% control value) | H (more than 50% control value) | L (50% or less control value) | H (more than 50% control value) | L (50% or less control value) | L (50% or less control value) | H (more than 50% control value) |
| CCn1c(-c2ccc(F)cc2Cl)c(C2CCCC2)cc(Cl)c1=O [compound 220] | H (more than 50% control value) | H (more than 50% control value) | H (more than 50% control value) | L (50% or less control value) | H (more than 50% control value) | H (more than 50% control value) | H (more than 50% control value) | H (more than 50% control value) |
| CCn1c(-c2ccc(F)cc2Cl)c(C2CCCC2)cc(Br)c1=O [compound 221] | H (more than 50% control value) | H (more than 50% control value) | H (more than 50% control value) | L (50% or less control value) | H (more than 50% control value) | L (50% or less control value) | L (50% or less control value) | H (more than 50% control value) |
| CCn1c(-c2ccc(OC)cc2)c(C(=O)C(C)C)cc(Cl)c1=O [compound 222] | L (50% or less control value) | H (more than 50% control value) | H (more than 50% control value) | L (50% or less control value) | H (more than 50% control value) | L (50% or less control value) | L (50% or less control value) | H (more than 50% control value) |
| CCn1c(-c2ccc(OC)cc2)c(C(C)(O)C(C)C)cc(Cl)c1=O (stereo not shown) [compound 223] | L (50% or less control value) | H (more than 50% control value) | H (more than 50% control value) | L (50% or less control value) | H (more than 50% control value) | L (50% or less control value) | L (50% or less control value) | L (50% or less control value) |
